In patent publication US9957252B2, “Metalloenzyme inhibitor compounds as fungicides” (Dow AgroSciences LLC, priority 2014, dated 2018):
Like-named read-outs stand apart in the source and are kept apart here.

Assays:
Type in all cases: in vivo, Mycosphaerella graminicola on wheat plants (variety Yuma)
[1] = tested on: standard laboratory SEPTTR isolate (SI SEPTTR); Mycosphaerella graminicola; Anamorph: Septoria tritici; assay: Leaf blotch of wheat fungicidal activity, Type A assay (technical grade in acetone/water with Triton X-100, booth sprayer), standard laboratory isolate; details: Zymoseptoria tritici, 24 h, 1 Day Protectant, wheat seedlings (Yuma), read-out: Disease control, SI SEPTTR Type A Assay (50 ppm) 1DP
Method: (§1) Evaluation of Fungicidal Activity: Leaf Blotch of Wheat (Mycosphaerella graminicola; Anamorph: Septoria tritici; Bayer code SEPTTR):
(§2) For Type A assays, technical grades of the experimental fungicides in Table 4 below were dissolved in acetone, and then mixed with nine volumes of water containing 110 ppm Triton X-100. The fungicide solutions were applied onto wheat seedlings using an automated booth sprayer. For Type B assays, emulsifiable concentrate (EC) formulations of technical grades of experimental fungicides in Table 4 below were prepared at 10% (w/v), and then mixed with 150 volumes of 0.1% Trycol 5941. The fungicide solutions were applied onto wheat seedlings using an automated track sprayer at 200 L/ha. All sprayed plants were allowed to air dry prior to further handling.
(§3) Wheat plants (variety Yuma) were grown from seed in a greenhouse in 50% mineral soil/50% soil-less Metro mix until the first leaf was fully emerged, with 7-10 seedlings per pot. Prior to or after application of experimental fungicides, plants were inoculated either with spores of a standard laboratory SEPTTR isolate (SI SEPTTR) or with spores from a SEPTTR field isolate collected from Wellsbourne, England in 2012 (FI SEPTTR). After inoculation, the plants were kept for 3 days at 20° C. in 100% relative humidity (one day in a dark dew chamber followed by two days in a lighted dew chamber). Plants were then transferred to a 20° C. greenhouse for disease development. When disease symptoms were fully expressed on untreated plants, infection levels on treated plants were assessed on a scale of 0 to 100 percent disease severity. Percent disease control was calculated using the ratio of disease severity on treated plants relative to untreated plants.

[2] = tested on: standard laboratory SEPTTR isolate (SI SEPTTR); Mycosphaerella graminicola; Anamorph: Septoria tritici; assay: Leaf blotch of wheat fungicidal activity, Type B assay (10% EC formulation in 0.1% Trycol 5941, track sprayer 200 L/ha), standard laboratory isolate; details: Zymoseptoria tritici, 72 h, wheat seedlings (Yuma)
Method: as §1, §2, §3

[3] = Leaf blotch of wheat fungicidal activity, Type B assay (10% EC formulation in 0.1% Trycol 5941, track sprayer 200 L/ha), field isolate; details: Zymoseptoria tritici, 72 h, field isolate (Wellsbourne, England 2012), wheat seedlings (Yuma)
Method: as §1, §2, §3

[4] = 3 Day Curative, read-out: Disease control, SI SEPTTR Type B Assay (100 g/ha) 3DC
[5] = 3 Day Protectant, read-out: Disease control, SI SEPTTR Type B Assay (100 g/ha) 3DP
[6] = 3 Day Curative, read-out: Disease control, FI SEPTTR Type B Assay (100 g/ha) 3DC
[7] = 3 Day Protectant, read-out: Disease control, FI SEPTTR Type B Assay (100 g/ha) 3DP

`CC(C)(C)C(O)(c1ccc(-c2ccccc2OC(F)(F)F)cc1)c1cncnc1` (stereo not drawn) [Compound 12] showed a pest or weed control at 50 ppm [1] of 60 to 79%.

Compound `CC(C)(C)C(O)(c1ccc(-c2ccc(SC(F)(F)F)cc2)cc1)c1cncnc1` (stereo not drawn) [Compound 19] has a pest or weed control at 100 g/ha [2, 4] of 80 to 100%, a pest or weed control at 100 g/ha [2, 5] of 60 to 79% and a pest or weed control at 100 g/ha [3, 6] of 80 to 100%. It also gave a pest or weed control at 100 g/ha [3, 7] of 80 to 100%.

With `COc1cc(-c2ccc(OC(F)(F)F)cc2F)ccc1C(O)(c1cncnc1)C(C)(C)C` (stereo not drawn) [Compound 53] the pest or weed control at 50 ppm [1] was 80 to 100%.

With `CC(C)(C)C(O)(c1ccc(-c2ccc(OC(F)(F)F)cc2)cc1)c1cncnc1` (stereo not drawn) [Compound 1, 2,2-dimethyl-1-(pyrimidin-5-yl)-1-(4′-(trifluoromethoxy)-[1,1′-biphenyl]-4-yl)propan-1-ol] the pest or weed control at 100 g/ha [2, 4] was 80 to 100%, the pest or weed control at 100 g/ha [2, 5] was 80 to 100% and the pest or weed control at 50 ppm [1] was 80 to 100%. It also gave a pest or weed control at 100 g/ha [3, 6] of 80 to 100% and a pest or weed control at 100 g/ha [3, 7] of 80 to 100%.

Compound `CC(C)(C)C(O)(c1ccc(-c2ccc(SC(F)(F)F)cc2)cc1)c1cccnc1` (stereo not drawn) [Compound 55] has a pest or weed control at 50 ppm [1] of 80 to 100%.

Work on `Cc1cc(-c2ccc(CC#N)cc2)ccc1C(O)(c1cncnc1)C(C)(C)C` (stereo not drawn) [Compound 43] yielded a pest or weed control at 50 ppm [1] of 40 to 59%.

In the case of `COc1cc(-c2ccc(CC#N)cc2)ccc1C(O)(c1cncnc1)C(C)(C)C` (stereo not drawn) [Compound 48], the pest or weed control at 50 ppm [1] is reported as 80 to 100%.

Work on `CC(C)(C)C(O)(c1cncnc1)c1ccc(-c2ccccc2)cc1F` (stereo not drawn) [Compound 28] yielded a pest or weed control at 50 ppm [1] of 80 to 100%.

Compound `Cc1cc(-c2ccc(SC(F)(F)F)cc2)ccc1C(O)(c1cncnc1)C(C)(C)C` (stereo not drawn) [Compound 35] has a pest or weed control at 50 ppm [1] of 80 to 100%.

`COc1cc(-c2ccc(OC(F)F)cc2)ccc1C(O)(c1cncnc1)C(C)(C)C` (stereo not drawn) [Compound 45] gave a pest or weed control at 50 ppm [1] of 80 to 100%.

Compound `Cc1cc(OC(F)(F)F)ccc1-c1ccc(C(O)(c2cncnc2)C(C)(C)C)c(C)c1` (stereo not drawn) [Compound 40] has a pest or weed control at 50 ppm [1] of 80 to 100%.

Work on `CC(C)(C)C(O)(c1ccc(-c2ccc(C(F)(F)F)cc2F)cc1)c1cncnc1` (stereo not drawn) [Compound 29] yielded a pest or weed control at 50 ppm [1] of 80 to 100%.

Compound `Cc1cc(-c2ccc(C(C)(C)C#N)cc2)ccc1C(O)(c1cncnc1)C(C)(C)C` (stereo not drawn) [Compound 42] has a pest or weed control at 50 ppm [1] of 80 to 100%.

In the case of `Cc1cc(-c2ccc(C#N)cc2)ccc1C(O)(c1cncnc1)C(C)(C)C` (stereo not drawn) [Compound 37], the pest or weed control at 50 ppm [1] is reported as 80 to 100%.

With `CC(C)(C)C(O)(c1ccc(-c2ccc(OC(F)F)cc2)cc1)c1cccnc1` (stereo not drawn) [Compound 56] the pest or weed control at 50 ppm [1] was 80 to 100%.

Compound `CC(C)(C)C(O)(c1ccc(-c2ccc(C3(C#N)CC3)cc2)cc1)c1cccnc1` (stereo not drawn) [Compound 60] has a pest or weed control at 50 ppm [1] of 80 to 100%.

Compound `CC(C)(C)C(O)(c1cncnc1)c1ccc(-c2ccc(C(F)(F)F)nc2)cc1Cl` (stereo not drawn) [Compound 23] has a pest or weed control at 100 g/ha [2, 4] of 80 to 100%, a pest or weed control at 100 g/ha [2, 5] of 80 to 100% and a pest or weed control at 100 g/ha [3, 6] of 80 to 100%. For the same compound, the pest or weed control at 100 g/ha [3, 7] was 80 to 100%.

Work on `CC(C)(C#N)c1ccc(-c2ccc(C(O)(c3cccnc3)C(C)(C)C)cc2)cc1` (stereo not drawn) [Compound 61] yielded a pest or weed control at 50 ppm [1] of 80 to 100%.

`CC(C)(C)C(O)(c1ccc(-c2ccc(C#N)cc2)cc1)c1cccnc1` (stereo not drawn) [Compound 58] showed a pest or weed control at 50 ppm [1] of 80 to 100%.

Work on `CC(C)(C)C(O)(c1ccc(-c2ccc(C(F)(F)F)cc2)cc1)c1cncnc1` (stereo not drawn) [Compound 6] yielded a pest or weed control at 50 ppm [1] of 80 to 100%.

With `CC(C)(C)C(O)(c1cncnc1)c1ccc(-c2ccc(OC(F)F)cc2)cc1F` (stereo not drawn) [Compound 16] the pest or weed control at 100 g/ha [2, 4] was 80 to 100%, the pest or weed control at 100 g/ha [2, 5] was 80 to 100% and the pest or weed control at 100 g/ha [3, 6] was 80 to 100%. It also gave a pest or weed control at 100 g/ha [3, 7] of 80 to 100%.

In the case of `CC(C)(C)C(O)(c1cncnc1)c1ccc(-c2ccc(Cl)cc2)cc1Cl` (stereo not drawn) [Compound 22], the pest or weed control at 100 g/ha [2, 4] is reported as 80 to 100%, the pest or weed control at 100 g/ha [2, 5] is reported as 80 to 100% and the pest or weed control at 100 g/ha [3, 6] is reported as 80 to 100%. It also gave a pest or weed control at 100 g/ha [3, 7] of 80 to 100%.

`CC(C)(C)C(O)(c1cncnc1)c1ccc(-c2ccc(C(F)(F)F)cc2F)cc1F` (stereo not drawn) [Compound 31] showed a pest or weed control at 50 ppm [1] of 80 to 100%.
